We go through 30 compounds from patent US20040023972A1, “Use of substituted imidazo[1,2-a]-pyridin-, -pyrimidin-and-pyrazin-3-yl-amine derivatives in the preparation of medicaments for inhibiting NOS” (Gruenenthal GmbH, priority 2000, published 2004).

As usually defined, the inhibition is the percentage by which the read-out fell short of the control.

In one assay the target is T1, NO synthase (Rattus norvegicus, UniProt P29476).
T1 construct: the supernatant was then removed by decantation and frozen in portions at −80° C; from tissue; host or cells: rat cerebellum, 20,000 g supernatant of homogenate
Description: HTS-NOS assay (NOS assay): conversion of radioactive arginine, cation-exchanger filter plate. The class given is biochemical. The note with it: 10 μM. As for the experimental part: This assay enables the percentage inhibition of NO synthase by an active ingredient to be determined by measuring the NOS activity under the action of the active ingredient. NO synthase is mixed together with radioactively labelled arginine and the active ingredient under suitable conditions. After terminating the NO-forming reaction at a given time, the amount of unconverted arginine is determined directly or indirectly. A comparison of that amount with the amount of arginine that remains in a mixture of NOS and arginine without the addition of active ingredient and under otherwise identical conditions gives the % inhibition of NO synthase by the tested active ingredient. This assay can be carried out as follows:
(a) incubation of NO synthase with labelled arginine as substrate in a reaction vessel,
(b) separation of the labelled arginine from the labelled citrulline optionally formed as a product of the enzymatic reaction, at a time at which the citrulline concentration is increasing,
(c) measurement of the amount of arginine remaining in each case.
Separation is carried out over a filter plate membrane.
This NOS assay is suitable especially for “high throughput screening” (HTS) on microtitre plates (MTP).
In this HTS-NOS assay, radioactive arginine is used as substrate. The assay volume can be chosen in the range from 25 μl to 250 μl, according to the type of microtitre plate (MTP). Depending on the source of the enzyme used, co-factors and co-enzymes are added. Incubation of the batches on this microtitre plate (assay MTP) according to step (a) is carried out at room temperature and is for 5 to 60 minutes according to the enzyme activity used (units). At the end of the incubation (step (a)), the plate is placed into a cell harvester which is equipped with a MTP having a cation-exchanger membrane as the filter base (filter MTP). All batches of the assay MTP are transferred to the filter MTP and filtered off with suction over a cation-exchanger filter plate, a paper filter charged with phosphate groups. The filter MTP is then washed with buffer or water. By means of this procedure, the arginine substrate that remains is bound to the cation exchanger, while the enzymatically formed radioactive citrulline is washed out quantitatively. After drying the filter MTP and adding scintillation liquid, the bound arginine can be counted using a scintillation counter. An uninhibited NOS reaction is reflected in low radioactivity. An inhibited enzyme reaction means that the radioactive arginine has not been converted. This means that a high level of radioactivity is found on the filter.
Rat cerebella were used as the starting tissue. The animals were anaesthetized and sacrificed, the brain tissue, the cerebellum, was removed by dissection, 1 ml of enzyme preparation buffer was added per rat cerebellum (4° C.), and disintegration was carried out using a Polytron homogeniser for 1 minute at 6000 rpm, followed by centrifugation for 15 minutes at 4° C. and 20,000 g; the supernatant was then removed by decantation and frozen in portions at −80° C. (the precipitate was discarded).
96-well MTP having a well capacity of <250 μl were used.
Pipetting sequence: see Table 1.
When the pipetting operation was complete, a cover was placed on the MTP (assay MTP), and incubation was at 25° C. (room temperature (RT)) for from 5 to 60 minutes, according to the amount and activity of the enzyme used.
The contents of the assay MTP were then transferred with the aid of a 96-well cell harvester to a 96-well cation exchanger MTP (filter MTP) and filtered off with suction. This was followed by washing once with […] of H2O (from a bath).
The plate was then dried for 1 hour at 60° C. in a drying cabinet. The underside of the filter MTP was then accurately sealed from beneath with a “back seal”. 35 μl of scintillation fluid per well were then added by means of a pipette. The upper side of the plate was also sealed with a “top seal”. […]
Take `Cc1cc(C)n2c(Nc3c(C)cccc3C)c(-c3ccccc3F)nc2c1` [Example 34]: the “HTS-NOS assay: % inhibition (10 μM)” value amounted to 61%.

For `C#[N+]CCCCCCNc1c(-c2ccco2)nc2cc(C)cc(C)n12` [Example 45, [6-(2-Furan-2-yl-5,7-dimethyl-imidazo[1,2-a]pyridin-3-ylamino)-hexyl]-methylidyne-ammonium], the “HTS-NOS assay: % inhibition (10 μM)” value turned out to be 54%.

As to `[C-]#[N+]CCCCCCNc1c(-c2ccc(C)cc2)nc2cc(C)ccn12` [Example 50, Methylidyne-[6-(7-methyl-2-p-tolyl-imidazo[1,2-a]pyridin-3-ylamino)-hexyl]-ammonium], the “HTS-NOS assay: % inhibition (10 μM)” value amounted to 78%.

With `CC(=O)OCc1ccc(-c2nc3cc(C)cc(C)n3c2NC2CCCCC2)o1` [Example 52, Acetic acid 5-(3-cyclohexylamino-5,7-dimethyl-imidazo[1,2-a]pyridin-2-yl)-furan-2-yl methyl ester], the “HTS-NOS assay: % inhibition (10 μM)” value was 64%.

Take `CC(=O)OCc1ccc(-c2nc3cc(C)ccn3c2NC2CCCCC2)o1` [Example 58, Acetic acid 5-(3-cyclohexylamino-7-methyl-imidazo[1,2-a]pyridin-2-yl)-furan-2-yl methyl ester]: the “HTS-NOS assay: % inhibition (10 μM)” value turned out to be 64%.

`[C-]#[N+]CCCCCCNc1c(-c2cccnc2)nc2cc(C)cc(C)n12` [Example 59, [6-(5,7-Dimethyl-2-pyridin-3-yl-imidazo[1,2-a]pyridin-3-ylamino)-hexyl]-methylidyne-ammonium]: the “HTS-NOS assay: % inhibition (10 μM)” value worked out at 57%.

For the compound `[C-]#[N+]CCCCCCNc1c(-c2ccccc2OC)nc2cc(C)cc(C)n12` [Example 61, {6-[2-(2-Methoxy-phenyl)-5,7-dimethyl-imidazo[1,2-a]pyridin-3-ylamino]-hexyl}-methylidyne-ammonium], the “HTS-NOS assay: % inhibition (10 μM)” value was determined as 73%.

The assay is the same for the next values; noted with them: read-out: HTS-NOS assay: % inhibition (10 μM).
Consider `Cc1cc(C)n2c(Nc3c(C)cccc3C)c(-c3ccccc3C)nc2c1` [Example 32, (2,6-Dimethyl-phenyl)-(5,7-dimethyl-2-o-tolyl-imidazo[1,2-a]pyridin-3-yl)-amine], for which the inhibition at 10 µM worked out at 59%.

Turning to `Cc1ccn2c(NC(C)(C)C)c(-c3cccc4ccccc34)nc2c1` [Example 33, Tert-butyl-(7-methyl-2-naphthalen-1-yl-imidazo[1,2-a]pyridin-3-yl)-amine], the inhibition at 10 µM was determined as 67%.

Turning to `Cc1cc(C)n2c(NC3CCCCC3)c(C)nc2c1` [Example 35, Cyclohexyl-(2,5,7-trimethyl-imidazo[1,2-a]-pyridin-3-yl)-amine], the inhibition at 10 µM was determined as 55%.

`Cc1cc(C)n2c(NC(C)(C)CC(C)(C)C)c(-c3ccc[nH]3)nc2c1` [Example 36, [5,7-Dimethyl-2-(1H-pyrrol-2-yl)-imidazo-[1,2-a]pyridin-3-yl]-(1,1,3,3-tetramethyl-butyl)-amine]: the inhibition at 10 µM was 69%.

Turning to `CCCCNc1c(C2CCCCC2)nc2cc(C)cc(C)n12` [Example 37, Butyl-(2-cyclohexyl-5,7-dimethyl-imidazo[1,2-a]pyridin-3-yl)-amine], the inhibition at 10 µM is 58%.

For the compound `Cc1cc(C)n2c(NC(C)(C)CC(C)(C)C)c(-c3ccccc3C)nc2c1` [Example 38, (5,7-Dimethyl-2-o-tolyl-imidazo[1,2-a]-pyridin-3-yl)-(1,1,3,3-tetramethyl-butyl)-amine], the inhibition at 10 µM came out at 60%.

Turning to `COc1cccc(-c2nc3cc(C)ccn3c2Nc2c(C)cccc2C)c1OC` [Example 39, [2-(2,3-Dimethoxy-phenyl)-7-methyl-imidazo[1,2-a]pyridin-3-yl]-(2,6-dimethyl-phenyl)-amine], the inhibition at 10 µM stood at 58%.

Turning to `Cc1ccn2c(NC(C)(C)CC(C)(C)C)c(C)nc2c1` [Example 40, (2,7-Dimethyl-imidazo[1,2-a]pyridin-3-yl)-(1,1,3,3-tetramethyl-butyl)-amine], the inhibition at 10 µM stood at 61%.

For the compound `Cc1ccn2c(NC(C)(C)CC(C)(C)C)c(-c3ccc(C4OCCO4)o3)nc2c1` [Example 41, [2-(5-[1,3]Dioxolan-2-yl-furan-2-yl)-7-methyl-imidazo[1,2-a]pyridin-3-yl]-(1,1,3,3-tetramethyl-butyl)-amine], the inhibition at 10 µM came to 57%.

As to `Cc1cc(C)n2c(Nc3c(C)cccc3C)c(-c3sccc3Br)nc2c1` [Example 42, [2-(3-Bromo-thiophen-2-yl)-5,7-dimethyl-imidazo[1,2-a]pyridin-3-yl]-(2,6-dimethyl-phenyl)-amine], the inhibition at 10 µM was found to be 55%.

In the case of `Cc1ccn2c(Nc3c(C)cccc3C)c(-c3ccccc3F)nc2c1` [Example 43, (2,6-Dimethyl-phenyl)-[2-(2-fluoro-phenyl)-7-methyl-imidazo[1,2-a]pyridin-3-yl]-amine], the inhibition at 10 µM worked out at 71%.

As for `Cc1cc(C)n2c(NC(C)(C)CC(C)(C)C)c(C3CCCCC3)nc2c1` [Example 44, (2-Cyclohexyl-5,7-dimethyl-imidazo[1,2-a]-pyridin-3-yl)-(1,1,3,3-tetramethyl-butyl)-amine], the inhibition at 10 µM is 71%.

For `Cc1ccn2c(NC(C)(C)CC(C)(C)C)c(-c3ccccc3C)nc2c1` [Example 46, (7-Methyl-2-o-tolyl-imidazo[1,2-a]pyridin-3-yl)-(1,1,3,3-tetramethyl-butyl)-amine], the inhibition at 10 µM is 59%.

Consider `Cc1ccn2c(Nc3c(C)cccc3C)c(-c3cccc(Cl)c3Cl)nc2c1` [Example 47, [2-(2,3-Dichloro-phenyl)-7-methyl-imidazo[1,2-a]pyridin-3-yl]-(2,6-dimethyl-phenyl)-amine], for which the inhibition at 10 µM was determined as 69%.

With `COc1cccc(-c2nc3cc(C)cc(C)n3c2Nc2c(C)cccc2C)c1OC` [Example 48, [2-(2,3-Dimethoxy-phenyl)-5,7-dimethyl-imidazo[1,2-a]pyridin-3-yl]-(2,6-dimethyl-phenyl)-amine], the inhibition at 10 µM came to 68%.

For the compound `CCCCNc1c(-c2cccc(OC)c2OC)nc2cc(C)cc(C)n12` [Example 49, Butyl-[2-(2,3-dimethoxy-phenyl)-5,7-dimethyl-imidazo[1,2-a]pyridin-3-yl]-amine], the inhibition at 10 µM worked out at 67%.

As for `Cc1cc(C)n2c(NC(C)(C)C)c(-c3ccc([N+](=O)[O-])o3)nc2c1` [Example 51, Tert-butyl-[5,7-dimethyl-2-(5-nitro-furan-2-yl)-imidazo[1,2-a]pyridin-3-yl]-amine], the inhibition at 10 µM amounted to 59%.

Turning to `COc1ccccc1-c1nc2cc(C)cc(C)n2c1NC(C)(C)CC(C)(C)C` [Example 53, [2-(2-Methoxy-phenyl)-5,7-dimethyl-imidazo[1,2-a]pyridin-3-yl]-(1,1,3,3-tetramethyl-butyl)-amine], the inhibition at 10 µM came to 61%.

`COc1ccc(-c2nc3cc(C)ccn3c2Nc2c(C)cccc2C)cc1OC` [Example 54, [2-(3,4-Dimethoxy-phenyl)-7-methyl-imidazo[1,2-a]pyridin-3-yl]-(2,6-dimethyl-phenyl)-amine]: the inhibition at 10 µM was 64%.

On to `CCCCNc1c(-c2cccc(O)c2)nc2cc(C)ccn12` [Example 55, 3-(3-Butylamino-7-methyl-imidazo[1,2-a]-pyridin-2-yl)-phenol], for which the inhibition at 10 µM was 63%.

Regarding `Cc1ccn2c(NC(C)(C)CC(C)(C)C)c(-c3cc4ccccc4o3)nc2c1` [Example 56, (2-Benzofuran-2-yl-7-methyl-imidazo[1,2-a]pyridin-3-yl)-(1,1,3,3-tetramethyl-butyl)-amine], the inhibition at 10 µM was 60%.

Take `Cc1cc(C)n2c(Nc3c(C)cccc3C)c(-c3cc4ccccc4o3)nc2c1` [Example 57, (2-Benzofuran-2-yl-5,7-dimethyl-imidazo[1,2-a]pyridin-3-yl)-(2,6-dimethyl-phenyl)-amine]: the inhibition at 10 µM came to 57%.

As to `CCCCNc1c(-c2ccccc2OC)nc2cc(C)ccn12` [Example 60, Butyl-[2-(2-methoxy-phenyl)-7-methyl-imidazo[1,2-a]pyridin-3-yl]-amine], the inhibition at 10 µM is 52%.
